For assay [1], the target named is p38 MAPKα isoform (MAPK14) (Homo sapiens (Human), UniProt Q16539). Briefly: p38 MAPKα enzyme inhibition (FRET, Z-LYTE, Method 2). Format: biochemical. An outline of the steps:
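Z-LYTE FRET: p38 MAPKα (80 ng/mL for Method 1, 200 ng/mL for Method 2, pre-dilution) preincubated 2 hr RT with compound (4–0.004 μg/mL solutions), activity read via MAPKAP-K2 phosphorylation after 1 hr RT and 1 hr protease development. Coumarin/fluorescein ratio gives phosphorylation; % inhibition versus uninhibited control, IC50 from concentration-response curve.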

The test system of assay [2] is PBMCs. Briefly: LPS-induced IL-8 release in PBMC cells (assay b). It is filed as cell-based, human. The following applies: Homo sapiens, PBMC; LPS-stimulated PBMCs; read-out: IC50 Values for Inhibition of Cytokine Release, PBMCs IL-8. An outline of the steps:
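Cytokines (TNFα, IL-8) in supernatants were quantified by sandwich ELISA after a 24 h challenge with 1 ng/mL E. coli LPS at 37° C, 5% CO2. Healthy-donor PBMCs had been exposed to compound for 2 h beforehand. IC50 values were fitted from the concentration-response curves.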

Assay [3] deals with PBMCs. Briefly: IFN gamma release in CD3/CD28 stimulated PBMC cells (assay c). It is filed as cell-based. The following applies: Homo sapiens, read-out: IC50 Values for Inhibition of Cytokine Release, PBMCs IFNγ. The method, boiled down: (§1)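 Steps: PBMCs separated from healthy whole blood by density gradient; seeded onto anti-CD3/CD28 coating (0.3 and 3 μg/mL respectively); compound added; incubated 3 days in standard tissue culture; supernatant cytokines quantified by sandwich ELISA, IC50 fitted.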

The test system of assay [4] is PBMCs. The assay can be described thus: IL-2 release in CD3/CD28 stimulated PBMC cells (assay c). It is filed as cell-based. The following applies: Homo sapiens, read-out: IC50 Values for Inhibition of Cytokine Release, PBMCs IL-2. The method, boiled down: as §1
The subject of assay [5] is d-U937 cells. The assay can be described thus: Accumulation of β catenin in d-U937 cells (assay m). Format: cell-based, human. The following applies: percentage relative to Reference Compound at 1 μg/mL. The method, boiled down:
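Read-out: colourimetric cell-based immunoassay for endogenous β-catenin (OD450 minus 655 reference), normalised to crystal violet absorbance at 595 nm. Test compound or vehicle was applied for 18 hr to U937 monocytes first differentiated with PMA (100 ng/mL) for 48–72 hr.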

Assay [6] concerns PBMCs. The assay can be described thus: Cell mitosis assay in PBMCs (assay g). The note with it: Homo sapiens, PBMC, test compound 5 μg/mL. Format: cell-based. The method, boiled down:
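Metaphase arrest with 0.1 μg/mL demecolcine during the final 2 hr of a 20 hr compound exposure, which follows 48 hr of 2% PHA stimulation of healthy-donor human PBMCs. Mitotic lymphocytes counted by flow cytometry (anti-phospho-histone 3 plus propidium iodide). Inhibition expressed relative to 0.5% DMSO.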

In general, IC50 refers to the midpoint of a concentration-inhibition curve. The term inhibition denotes the relative decrease from the control value, in per cent. Higher therefore signals a strong effect.

Each structure is given as a SMILES string.

Sequence of p38 MAPKα isoform (MAPK14) (Q16539 whole entry, canonical isoform): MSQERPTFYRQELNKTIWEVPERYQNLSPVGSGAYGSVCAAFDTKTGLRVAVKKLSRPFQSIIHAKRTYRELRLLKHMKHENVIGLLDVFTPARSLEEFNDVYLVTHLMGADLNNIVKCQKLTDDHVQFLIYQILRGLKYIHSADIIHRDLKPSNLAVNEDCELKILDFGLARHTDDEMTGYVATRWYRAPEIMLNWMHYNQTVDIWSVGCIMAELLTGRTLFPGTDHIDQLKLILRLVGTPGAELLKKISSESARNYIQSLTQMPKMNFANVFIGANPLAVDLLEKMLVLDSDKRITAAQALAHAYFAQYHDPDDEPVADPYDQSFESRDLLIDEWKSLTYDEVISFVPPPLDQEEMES

On to `COCCOCCOCCOc1cc(Nc2cc(Oc3ccc(NC(=O)Nc4cc(C(C)(C)C)cc(P(C)(C)=O)c4)c4ccccc34)ccn2)cc(OC)c1` [Example 10, 1-(3-(tert-Butyl)-5-(dimethylphosphoryl)phenyl)-3-(4-((2-((3-methoxy-5-(2-(2-(2-methoxy-ethoxy)ethoxy)ethoxy)phenyl)amino)pyridin-4-yl)oxy)naphthalen-1-yl)urea], for which the IC50 in assay [1] is 0.045 µM; in assay [2], 0.002 µM; in assay [3] it was 0.0313 µM; in assay [4] it was 0.0886 µM. Moreover, the figures for the “% β-catenin induction” value in assay [5] (test compound 1 μg/mL), in assay [5] (test compound 5 μg/mL) and in assay [5] (test compound 10 μg/mL) were −2.5%, −6.0% and −4.0%, respectively. For the same compound, the inhibition at 5 µg/mL in assay [6] came out at 39.3%.

On to `COc1c(NC(=O)Nc2ccc(Oc3ccnc(Nc4ccccc4)c3)c3ccccc23)cc(C(C)(C)C)cc1P(C)(C)=O` [Example 11, 1-(5-(tert-Butyl)-3-(dimethylphosphoryl)-2-methoxyphenyl)-3-(4-((2-(phenylamino)pyridin-4-yl)oxy)naphthalen-1-yl)urea], for which the IC50 in assay [1] is 0.141 µM; in assay [2], 0.0023 µM; in assay [3], 0.0105 µM; in assay [4] it was 0.0806 µM. Moreover, the “% β-catenin induction” value is 5.0% in assay [5] (test compound 1 μg/mL), 19.7% in assay [5] (test compound 5 μg/mL) and 27.3% in assay [5] (test compound 10 μg/mL). Besides, testing at 5 µg/mL in assay [6] gave an inhibition of 61%.

For `COc1c(CC(N)=O)cc(C(C)(C)C)cc1NC(=O)Nc1ccc(Oc2ccnc(Nc3ccccc3)c2)c2ccccc12` [Example 13, 2-(5-(tert-Butyl)-2-methoxy-3-(3-(4-((2-(phenylamino)pyridin-4-yl)oxy)naphthalen-1-yl)ureido)phenyl)acetamide], the IC50 in assay [1] was 0.108 µM; in assay [2] it was 0.0064 µM; in assay [3] it was 0.0504 µM; in assay [4], 0.204 µM. The entries for the “% β-catenin induction” value in assay [5] (test compound 1 μg/mL), in assay [5] (test compound 5 μg/mL) and in assay [5] (test compound 10 μg/mL) were −4.0%, 6.5% and 9.5%, respectively. In addition, the inhibition at 5 µg/mL in assay [6] came out at 13.9%.

For `COc1c(NC(=O)Nc2ccc(Oc3ccnc(Nc4ccccc4)c3)c3ccccc23)cc(C(C)(C)C)cc1C(=O)NCCN1CCOCC1` [Example 14, 5-(tert-Butyl)-2-methoxy-N-(2-morpholinoethyl)-3-(3-(4-((2-(phenylamino)pyridin-4-yl)oxy)naphthalen-1-yl)ureido)benzamide], the IC50 was 0.392 µM in assay [1], 0.0033 µM in assay [2], 0.0163 µM in assay [3] and 0.0392 µM in assay [4]. The entries for the “% β-catenin induction” value in assay [5] (test compound 1 μg/mL), in assay [5] (test compound 5 μg/mL) and in assay [5] (test compound 10 μg/mL) were −0.5%, 22.0% and 25.5%, respectively. Moreover, testing at 5 µg/mL in assay [6] gave an inhibition of 51.9%.

Take `COCCOCCOCCOc1cc(Nc2cc(Oc3ccc(NC(=O)Nc4cc(C(C)(C)C)cc(C(=O)NCCN5CCOCC5)c4OC)c4ccccc34)ccn2)cc(OC)c1` [Example 16, 5-(tert-Butyl)-2-methoxy-3-(3-(4-((2-((3-methoxy-5-(2-(2-(2-methoxyethoxy)ethoxy)ethoxy)-phenyl)amino)pyridin-4-yl)oxy)naphthalen-1-yl)ureido)-N-(2-morpholinoethyl)benzamide]: the IC50 in assay [1] stood at 0.23 µM; in assay [2], 0.0017 µM; in assay [3], 0.0043 µM; in assay [4], 0.0077 µM. For the same compound, the “% β-catenin induction” value in assay [5] (test compound 1 μg/mL) is listed as 0.0%; in assay [5] (test compound 5 μg/mL) it was −3.0%; in assay [5] (test compound 10 μg/mL) it was −6.5%. The inhibition at 5 µg/mL in assay [6] stood at 43.3%.

As for `COCCOCCOCCOc1cc(Nc2cc(Oc3ccc(NC(=O)Nc4cc(C(C)(C)C)cc([S+](C)[O-])c4OC)c4ccccc34)ccn2)cc(OC)c1` (stereo not drawn) [Example 17, 1-(5-(tert-Butyl)-2-methoxy-3-(methylsulfinyl)phenyl)-3-(4-((2-((3-methoxy-5-(2-(2-(2-methoxyethoxy)ethoxy)ethoxy)phenyl)amino)pyridin-4-yl)oxy)naphthalen-1-yl)urea], the half-inhibitory concentration (IC50) in assay [1] amounted to 0.068 µM; in assay [2], 0.0009 µM; in assay [3], 0.0049 µM; in assay [4], 0.0305 µM. For the same compound, the “% β-catenin induction” value in assay [5] (test compound 1 μg/mL) is given as −2.0%; in assay [5] (test compound 5 μg/mL) it was −7.0%; in assay [5] (test compound 10 μg/mL), −5.5%. The inhibition at 5 µg/mL in assay [6] was determined as 41.3%.

As to `COc1c(CS(C)(=O)=O)cc(C(C)(C)C)cc1NC(=O)Nc1ccc(Oc2ccnc(Nc3ccccc3)c2)c2ccccc12` [Example 19, 1-(5-(tert-Butyl)-2-methoxy-3-((methylsulfonyl)methyl)phenyl)-3-(4-((2-(phenylamino)pyridin-4-yl)oxy)naphthalen-1-yl)urea], the 50% inhibitory concentration (IC50) in assay [1] is 0.208 µM; in assay [2], 0.0062 µM; in assay [3] it was 0.0268 µM; in assay [4], 0.257 µM. Moreover, the “% β-catenin induction” value in assay [5] (test compound 1 μg/mL) is on record as 2.5%; in assay [5] (test compound 5 μg/mL), 9.0%; in assay [5] (test compound 10 μg/mL), 13.0%. Also, testing at 5 µg/mL in assay [6] gave an inhibition of 36.9%.

Turning to `COc1cc(Nc2nccc(Oc3ccc(NC(=O)Nc4cc(C(C)(C)C)cc(OCP(C)(C)=O)c4OC)c4ccccc34)n2)cc(OC)c1` [Example 20, 1-(5-(tert-Butyl)-3-((dimethylphosphoryl)methoxy)-2-methoxyphenyl)-3-(4-((2-((3,5-dimethoxyphenyl)amino)pyrimidin-4-yl)oxy)naphthalen-1-yl)urea], the IC50 in assay [1] turned out to be 0.368 µM; in assay [2], 0.0025 µM; in assay [3] it was 0.0079 µM; in assay [4] it was 0.0105 µM. In addition, the entries for the “% β-catenin induction” value in assay [5] (test compound 1 μg/mL), in assay [5] (test compound 5 μg/mL) and in assay [5] (test compound 10 μg/mL) were 2.5%, 20.5% and 16.5%, respectively. Besides, the inhibition at 5 µg/mL in assay [6] is 55%.

With `COc1c(CP(C)(C)=O)cc(C(C)(C)C)cc1NC(=O)Nc1ccc(Oc2ccnc(Nc3ccccc3)c2)c2ccccc12` [Example 24, 1-(5-(tert-Butyl)-3-((dimethylphosphoryl)methyl)-2-methoxyphenyl)-3-(4-((2-(phenylamino)-pyridin-4-yl)oxy)naphthalen-1-yl)urea], the IC50 is 0.22 µM in assay [1], 0.0031 µM in assay [2], 0.064 µM in assay [3] and 0.276 µM in assay [4]. Also, the “% β-catenin induction” value is on record as −3.0% in assay [5] (test compound 1 μg/mL), 13.0% in assay [5] (test compound 5 μg/mL) and 16.5% in assay [5] (test compound 10 μg/mL). The inhibition at 5 µg/mL in assay [6] stood at 37.9%.

On to `COc1c(C[S+](C)[O-])cc(C(C)(C)C)cc1NC(=O)Nc1ccc(Oc2ccnc(Nc3ccccc3)c2)c2ccccc12` (stereo not drawn) [Example 25, 1-(5-(tert-Butyl)-2-methoxy-3-((methylsulfinyl)methyl)phenyl)-3-(4-((2-(phenylamino)pyridin-4-yl)oxy)naphthalen-1-yl)urea], for which the IC50 was 0.323 µM in assay [1], 0.0053 µM in assay [2], 0.0295 µM in assay [3] and 0.175 µM in assay [4]. The “% β-catenin induction” value in assay [5] (test compound 1 μg/mL) is reported as 1.0%; in assay [5] (test compound 5 μg/mL), 8.0%; in assay [5] (test compound 10 μg/mL), 17.5%. Testing at 5 µg/mL in assay [6] gave an inhibition of 24.5%.

As to `COc1c(NC(=O)Nc2ccc(Oc3ccnc(Nc4cc(C)cc(C)c4)c3)c3ccccc23)cc(C(C)(C)C)cc1P(C)(C)=O` [Example 28, 1-(5-(tert-Butyl)-3-(dimethylphosphoryl)-2-methoxyphenyl)-3-(4-((2-((3,5-dimethylphenyl)-amino)pyridin-4-yl)oxy)naphthalen-1-yl)urea], the IC50 was found to be 0.254 µM in assay [1], 0.0025 µM in assay [2], 0.0014 µM in assay [3] and 0.0633 µM in assay [4]. Besides, the results for the “% β-catenin induction” value in assay [5] (test compound 1 μg/mL), in assay [5] (test compound 5 μg/mL) and in assay [5] (test compound 10 μg/mL) were 3.0%, 6.7% and 11.3%, respectively. The compound also displayed an inhibition at 5 µg/mL in assay [6] of 54.4%.

For `COc1cc(Nc2cc(Oc3ccc(NC(=O)Nc4cc(C(C)(C)C)cc(CC(N)=O)c4OC)c4ccccc34)ccn2)cc(OC)c1` [Example 30, 2-(5-(tert-Butyl)-3-(3-(4-((2-((3,5-dimethoxyphenyl)amino)pyridin-4-yl)oxy)naphthalen-1-yl)ureido)-2-methoxyphenyl)acetamide], the concentration for half-maximal inhibition (IC50) in assay [1] is 0.132 µM; in assay [2] it was 0.0017 µM; in assay [3] it was 0.0064 µM; in assay [4], 0.0945 µM. Also, the results for the “% β-catenin induction” value in assay [5] (test compound 1 μg/mL), in assay [5] (test compound 5 μg/mL) and in assay [5] (test compound 10 μg/mL) were 6.5%, 23.5% and 1.0%, respectively. This compound registered an inhibition at 5 µg/mL in assay [6] of 48.7%.
